For this test, the target named is human voltage-gated proton channel hHv1 (Homo sapiens, UniProt Q96D96). The experiment in a line: liposome proton flux assay. Type of test: biochemical.
Chain of human voltage-gated proton channel hHv1 (Q96D96 whole entry): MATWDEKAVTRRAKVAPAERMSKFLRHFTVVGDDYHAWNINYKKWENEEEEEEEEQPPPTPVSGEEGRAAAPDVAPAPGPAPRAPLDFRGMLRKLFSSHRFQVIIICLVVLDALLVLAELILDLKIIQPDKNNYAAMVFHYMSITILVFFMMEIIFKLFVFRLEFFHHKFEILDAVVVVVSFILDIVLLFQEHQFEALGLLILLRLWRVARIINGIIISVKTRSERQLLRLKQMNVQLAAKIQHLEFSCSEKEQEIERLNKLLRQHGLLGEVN

Turning to `CC(C)CCC[C@@H](C)[C@H]1CC[C@H]2[C@@H]3CC=C4C[C@@H](O)CC[C@]4(C)[C@H]3CC[C@]12C` [cholesterol], the IC50 is ~ 10 % (wt/wt, to total membrane lipids).
